Results on 28 molecules are retold here after patent publication US12171755B2, “PAPD5 inhibitors and methods of use thereof” (Children's Medical Center Corporation, priority 2017, dated 2024).

In this test the target is T1, PAPD5 (Homo sapiens, UniProt Q8NDF8).
T1 construct: made in house
Briefly: High-throughput luminescence (KinaseGlo) RNA polyadenylation assay, ATP utilization by recombinant PAPD5. In kind it is biochemical. The note with it: Table 4 (entries of Table 5), ratio of luminescence with inhibitor to DMSO; for Fold-change determined at compound concentration 33 μM: 33 μM compound; for Fold-change determined at compound concentration 100 μM: 100 μM compound, higher = higher inhibition. The procedure:
Optimal conditions for an in vitro RNA polyadenylation assay using recombinant PAPD5, ATP and an oligonucleotide substrate were identified. The HTS assay involved ATP utilization by PAPD5, which reads out as a decreased luminescence signal produced by luciferase (KinaseGlo, Promega, Madison, WI).
100 nl of compound dissolved in DMSO was transferred to each well of the assay plate via pin transfer. For negative control wells, DMSO alone was added. Plates were gently vortexed for 5 seconds, then incubated for 2 hours at room temperature.
After 2 hours, 5 ul of luciferase (Promega KinaseGlo, Madison, WI) was added using a MultiDrop Combi (Thermo Fisher Scientific, Waltham, MA). The mixture was gently vortexed for 5 seconds and incubated for 10 minutes at room temperature. Plates were spun for 1 minute prior to luminescence measurements. Luminescent measurements were quantitated using a PerkinElmer EnVision™ plate reader.
˜100,000 compounds from various libraries at the ICCB-Longwood were screened in this manner in duplicate.
The fold change was the ratio of luminescence from a sample with inhibitor compared to that with DMSO. Thus, a higher number indicates higher inhibition.
(Kinase-Glo measures the ATP left after a reaction by luminescence.)

T1 sequence (Q8NDF8 68-698 isoform Q8NDF8-5): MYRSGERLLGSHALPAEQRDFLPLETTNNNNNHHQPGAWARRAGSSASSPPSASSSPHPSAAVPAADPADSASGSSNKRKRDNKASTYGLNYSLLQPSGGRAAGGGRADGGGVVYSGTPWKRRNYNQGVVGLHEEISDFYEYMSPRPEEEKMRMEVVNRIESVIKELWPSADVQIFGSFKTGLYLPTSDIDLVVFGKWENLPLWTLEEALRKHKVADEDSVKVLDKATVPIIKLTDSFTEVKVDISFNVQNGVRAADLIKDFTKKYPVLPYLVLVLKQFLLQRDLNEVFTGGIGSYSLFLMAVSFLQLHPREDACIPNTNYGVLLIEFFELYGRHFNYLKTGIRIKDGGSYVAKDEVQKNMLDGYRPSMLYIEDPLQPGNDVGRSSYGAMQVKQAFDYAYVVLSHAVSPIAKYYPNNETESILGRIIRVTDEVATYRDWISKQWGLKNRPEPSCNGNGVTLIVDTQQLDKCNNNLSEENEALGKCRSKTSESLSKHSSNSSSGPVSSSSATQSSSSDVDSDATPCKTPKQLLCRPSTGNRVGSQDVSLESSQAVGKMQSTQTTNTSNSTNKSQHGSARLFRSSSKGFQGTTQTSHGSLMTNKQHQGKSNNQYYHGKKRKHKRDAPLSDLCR

Turning to `CC(C)Cn1c(=O)c2ccccc2n2c(=S)[nH]nc12` [Entry 73, 4-isobutyl-1-thioxo-2,4-dihydro[1,2,4]triazolo[4,3-a]quinazolin-5(1H)-one], the “Fold-change determined at compound concentration 33 μM” value came out at 1.093 and the “Fold-change determined at compound concentration 100 μM” value was found to be 1.278.
As for `Cc1c2c(=O)n(-c3nc4ccccc4s3)[nH]c2cc(=O)n1CCc1cnc[nH]1` [Entry 176, 5-(2-(1H-imidazol-5-yl)ethyl)-2-(benzo[d]thiazol-2-yl)-4-methyl-1,2-dihydro-3H-pyrazolo[4,3-c]pyridine-3,6(5H)-dione], the “Fold-change determined at compound concentration 33 μM” value was 1.151 and the “Fold-change determined at compound concentration 100 μM” value was 1.563.
Consider `Cc1ccc2c(=O)cc(C(=O)Nc3nnc(C)s3)oc2c1` [Entry 116, 7-methyl-N-(5-methyl-1,3,4-thiadiazol-2-yl)-4-oxo-4H-chromene-2-carboxamide], for which the “Fold-change determined at compound concentration 33 μM” value is recorded as 1.459 and the “Fold-change determined at compound concentration 100 μM” value turned out to be 2.138.
For the molecule `Cc1nnc(NC(=O)c2cc(=O)c3cc(F)ccc3o2)s1` [Entry 120, 6-fluoro-N-(5-methyl-1,3,4-thiadiazol-2-yl)-4-oxo-4H-chromene-2-carboxamide], the “Fold-change determined at compound concentration 33 μM” value was 1.1 and the “Fold-change determined at compound concentration 100 μM” value amounted to 1.381.
For the molecule `CCCc1nnc(NC(=O)c2cc(=O)c3cc(C)c(C)cc3o2)s1` [Entry 127, 6,7-dimethyl-4-oxo-N-(5-propyl-1,3,4-thiadiazol-2-yl)-4H-chromene-2-carboxamide], the “Fold-change determined at compound concentration 33 μM” value worked out at 1.397 and the “Fold-change determined at compound concentration 100 μM” value worked out at 1.984.
For the molecule `CCc1ccc(Cn2c(=O)c3sccc3n3c(=S)[nH]nc23)cc1` [Entry 76, 4-(4-ethylbenzyl)-1-thioxo-2,4-dihydrothieno[2,3-e][1,2,4]triazolo[4,3-a]pyrimidin-5(1H)-one], the “Fold-change determined at compound concentration 33 μM” value was 1.7195 and the “Fold-change determined at compound concentration 100 μM” value is listed as 1.423.
The like results for `CSc1nnc(NC(=O)c2cc(=O)c3cc(C)c(C)cc3o2)s1` [Entry 125, 6,7-dimethyl-N-[5-(methylsulfanyl)-1,3,4-thiadiazol-2-yl]-4-oxo-4H-chromene-2-carboxamide] were, in that order, 1.147 and 1.444.
With `Cc1c(C(=O)N2CCCC2)oc2c1-c1nn(CC(=O)NCc3ccccc3Br)cc1CC2` [Entry 172, N-[(2-bromophenyl)methyl]-2-[8-methyl-7-(pyrrolidine-1-carbonyl)-4,5-dihydrofuro[2,3-g]indazol-2-yl]acetamide], the “Fold-change determined at compound concentration 33 μM” value came to 1.296 and the “Fold-change determined at compound concentration 100 μM” value was 1.616.
For `COCc1c(Br)c(C)nc2sc3c(=O)[nH]nnc3c12` [Entry 166, 8-bromo-9-(methoxymethyl)-7-methylpyrido[3′,2′:4,5]thieno[3,2-d][1,2,3]triazin-4(3H)-one], the “Fold-change determined at compound concentration 33 μM” value turned out to be 1.128 and the “Fold-change determined at compound concentration 100 μM” value worked out at 1.321.
On the same counts, the results for `Cc1ccc2cc(-c3noc(CCC(=O)Nc4nccs4)n3)c(O)nc2c1` [Entry 94, 3-[3-(2-hydroxy-7-methylquinolin-3-yl)-1,2,4-oxadiazol-5-yl]-N-1,3-thiazol-2-ylpropanamide] are 1.294 and 1.926.
For the molecule `O=C(O)c1cccc(Nc2ncnc3ccc(Br)cc23)c1` [Entry 32, 3-[(6-bromoquinazolin-4-yl)amino]benzoic acid], the “Fold-change determined at compound concentration 33 μM” value was determined as 1.114 and the “Fold-change determined at compound concentration 100 μM” value was 1.236.
On to `O=c1nc(SCc2ccc(F)cc2)[nH]c2nc[nH]c12` [Entry 162, 2-[(4-fluorophenyl)methylsulfanyl]-3,7-dihydropurin-6-one], for which the “Fold-change determined at compound concentration 33 μM” value amounted to 1.153 and the “Fold-change determined at compound concentration 100 μM” value came out at 1.431.
`O=C(NCCN1CCCC1)c1ccc(Cn2c(SCc3ccc(Cl)cc3)nc3ccncc32)cc1` [Entry 203, 4-({2-[(4-chlorobenzyl)thio]-3H-imidazo[4,5-c]pyridin-3-yl}methyl)-N-(2-pyrrolidin-1-ylethyl)benzamide]: the “Fold-change determined at compound concentration 33 μM” value amounted to 1.106 and the “Fold-change determined at compound concentration 100 μM” value was found to be 1.31.
The like results for `COc1ccc2c(c1)[nH]c1c(C)nccc12` [Entry 114, 7-Methoxy-1-methyl-9H-pyrido[3,4-b]indole] were, in that order, 1.1 and 1.342.
Turning to `COc1ccc(OC)c(NC(=O)Cc2c(C(=O)O)[nH]c3ccc(Cl)cc23)c1` [Entry 109, 5-chloro-3-[2-(2,5-dimethoxyanilino)-2-oxoethyl]-1H-indole-2-carboxylic acid], the “Fold-change determined at compound concentration 33 μM” value is recorded as 1.076 and the “Fold-change determined at compound concentration 100 μM” value stood at 1.231.
On the same counts, the results for `Cc1ccc(-n2nc3c(=O)n(CCCC(=O)NCc4ccccc4C)nc(C)c3c2C)cc1` [Entry 240, 4-[3,4-dimethyl-2-(4-methylphenyl)-7-oxopyrazolo[3,4-d]pyridazin-6-yl]-N-[(2-methylphenyl)methyl]butanamide] are 1.091 and 1.206.
With `O=C(O)c1csc2nc[nH]c(=O)c12` [Entry 210, 4-Oxo-3,4-dihydrothieno[2,3-d]pyrimidine-5-carboxylic acid], the “Fold-change determined at compound concentration 33 μM” value is reported as 1.136 and the “Fold-change determined at compound concentration 100 μM” value is recorded as 1.311.
For the molecule `CCc1cccc(NC(=O)Nc2cn(C)c(=O)c3ccccc23)c1` [Entry 61, 1-(3-ethylphenyl)-3-(2-methyl-1-oxoisoquinolin-4-yl)urea], the “Fold-change determined at compound concentration 33 μM” value turned out to be 1.07 and the “Fold-change determined at compound concentration 100 μM” value is reported as 1.235.
In the case of `O=S(=O)(Nc1ccc2nnc(-c3ccccc3)n2n1)c1ccc(Cl)cc1` [Entry 51, 4-chloro-N-(3-phenyl-[1,2,4]triazolo[4,3-b]pyridazin-6-yl)benzenesulfonamide], the “Fold-change determined at compound concentration 33 μM” value was found to be 1.242 and the “Fold-change determined at compound concentration 100 μM” value is 1.825.
Consider `Cc1ccc(Cn2c(SCc3ccc(C(=O)O)cc3)nc3cccnc32)cc1` [Entry 238, 4-[[3-[(4-methylphenyl)methyl]imidazo[4,5-b]pyridin-2-yl]sulfanylmethyl]benzoic acid], for which the “Fold-change determined at compound concentration 33 μM” value was found to be 1.119 and the “Fold-change determined at compound concentration 100 μM” value is 1.238.
Consider `Cc1cccc2c1-c1sc(C(=O)NCCCN3CCC(C)CC3)cc1CO2` [Entry 226, 9-methyl-N-[3-(4-methylpiperidin-1-yl)propyl]-4H-thieno[3,2-c]chromene-2-carboxamide], for which the “Fold-change determined at compound concentration 33 μM” value is reported as 1.095 and the “Fold-change determined at compound concentration 100 μM” value is reported as 1.228.
In the case of `CCOC(=O)c1c[nH]c2nc(NCc3cccc(Br)c3)nn2c1=O` [Entry 156, ethyl 2-[(3-bromophenyl)methylamino]-7-oxo-1H-[1,2,4]triazolo[1,5-a]pyrimidine-6-carboxylate], the “Fold-change determined at compound concentration 33 μM” value worked out at 1.212 and the “Fold-change determined at compound concentration 100 μM” value was 1.516.
As for `O=C(O)c1cccn2c(=O)c3c4c(sc3nc12)CCCC4` [Entry 215, 12-oxo-1,2,3,4-tetrahydro-12H-[1]benzothieno[2,3-d]pyrido[1,2-a]pyrimidine-7-carboxylic acid], the “Fold-change determined at compound concentration 33 μM” value is reported as 1.074 and the “Fold-change determined at compound concentration 100 μM” value stood at 2.037.
The like results for `CN1CCCc2cc(C(=O)NC3CCCCC3)sc21` [Entry 239, N~2~cyclohexyl-7-methyl-4,5,6,7-tetrahydrothieno[2,3-b]pyridine-2-carboxamide] were, in that order, 1.125 and 1.314.
Consider `CC(C)Cn1cc(NC(=O)NCc2ccccc2)c2ccccc2c1=O` [Entry 57a, 1-benzyl-3-[2-(2-methylpropyl)-1-oxoisoquinolin-4-yl]urea], for which the “Fold-change determined at compound concentration 33 μM” value is listed as 1.099 and the “Fold-change determined at compound concentration 100 μM” value worked out at 1.574.
As for `COc1ccc(CNC(=O)Nc2cn(CC(C)C)c(=O)c3ccccc23)c(OC)c1` [Entry 60a, 1-[(2,4-dimethoxyphenyl)methyl]-3-[2-(2-methylpropyl)-1-oxoisoquinolin-4-yl]urea], the “Fold-change determined at compound concentration 33 μM” value came out at 1.164 and the “Fold-change determined at compound concentration 100 μM” value is given as 1.507.
Regarding `COc1ccc(C2CC(=O)N3CN(C4CCCCC4)CSC3=C2C#N)cc1` (centres unmarked) [Entry 194, 3-cyclohexyl-8-(4-methoxyphenyl)-6-oxo-3,4,7,8-tetrahydro-2H,6H-pyrido[2,1-b][1,3,5]thiadiazine-9-carbonitrile], the “Fold-change determined at compound concentration 33 μM” value was found to be 1.323 and the “Fold-change determined at compound concentration 100 μM” value is 1.613.
Regarding `CC1Oc2ccc(C(=O)CSc3nc(-c4ccc(Cl)cc4)c(C#N)c(=O)[nH]3)cc2NC1=O` (centres unmarked) [Entry 233, 4-(4-chlorophenyl)-2-{[2-(2-methyl-3-oxo-3,4-dihydro-2H-1,4-benzoxazin-6-yl)-2-oxoethyl]sulfanyl}-6-oxo-1,6-dihydro-5-pyrimidinecarbonitrile], the “Fold-change determined at compound concentration 33 μM” value turned out to be 1.256 and the “Fold-change determined at compound concentration 100 μM” value worked out at 1.859.
